Assay results published in PubChem BioAssay AID1996.
In brackets after ≈: the same amount, converted by molar mass.

Settings: buffer; pH 7.4; 200.0 µM
With O=C1OCCC1Sc1nnc(-c2ccc(Cl)cc2Cl)o1 (centres undefined) the solubility kinetic was > 49.7 µg/mL. For CCCc1cc(C(=O)OC)c(NC(=O)CCCC(=O)O)s1, the solubility kinetic was > 47 µg/mL. Molecule COc1ccc2[nH]cc(CCNC(=O)CCC3CCCCC3)c2c1 has a solubility kinetic of 29.9 µg/mL (≈ 91 µM). CCNC(=O)C(=O)Nc1ccc(OC)c(Cl)c1 showed a solubility kinetic of 2.4 µg/mL (≈ 9.35 µM). For CCOC(=O)N[C@H](Cc1c[nH]c2ccccc12)C(=O)NC1CC1, the solubility kinetic was > 47.3 µg/mL. Cc1ccc(NC(=O)CN2C(=O)N/C(=C\c3cccnc3)C2=O)cc1 showed a solubility kinetic of 5.2 µg/mL (≈ 15.5 µM). COc1ccc(/C(N)=N/OC(=O)CC2CCCCC2)cc1OC showed a solubility kinetic of 19.1 µg/mL (≈ 59.6 µM). With Fc1ccc(-n2c(=S)[nH]c3cccnc32)cc1 the solubility kinetic was > 36.8 µg/mL. For CCCC(=O)Nc1cc(C)c(NC(=O)c2ccco2)cn1, the solubility kinetic was 42.8 µg/mL (≈ 149 µM). For COc1cccc(C(=O)c2c[nH]c(C(=O)NCc3cccnc3)c2)c1, the solubility kinetic was > 50.3 µg/mL. For Cc1ccc(NC(=O)NCc2ccccn2)c(C)c1, the solubility kinetic was > 38.3 µg/mL. For CS(=O)(=O)N(CC(=O)NCc1cccnc1)C1CCCCC1, the solubility kinetic was > 48.8 µg/mL. In the case of CCc1noc(C)c1C(=O)OCC(=O)c1ccc(NC(C)=O)cc1F, the solubility kinetic is reported as 9.1 µg/mL (≈ 26.1 µM). In the case of Clc1cc2nc(-c3cccnc3Cl)[nH]c2cc1Cl, the solubility kinetic is reported as 0.8 µg/mL (≈ 2.68 µM). COC1(NC(=O)c2ccccc2)C(C)=CC(=O)C=C1C gave a solubility kinetic of 40 µg/mL (≈ 147 µM). For Cc1ccc(NC(=O)C2CCN(C(=O)c3ccco3)CC2)cc1C, the solubility kinetic was 45.1 µg/mL (≈ 138 µM). With O=c1c2cc(NC(=S)NC3CC3)ccc2nc2n1CCCCC2 the solubility kinetic was 34.7 µg/mL (≈ 106 µM). For CCOC(=O)CNC(=O)c1ccc(Br)s1, the solubility kinetic was > 43.8 µg/mL. With COC(=O)CN(C#N)c1nc(NCc2ccccc2)nc(OC)n1 the solubility kinetic was > 49.2 µg/mL. Molecule CCCCNS(=O)(=O)c1ccc(NC(=O)c2cccs2)cc1 has a solubility kinetic of 1 µg/mL (≈ 2.95 µM). CC(=O)Nc1ccc(C(=O)CN2C(=O)NC3(CCCCCC3)C2=O)c(F)c1 gave a solubility kinetic of 33.9 µg/mL (≈ 90.3 µM). Molecule CN(C)S(=O)(=O)c1ccc(C(=O)/C=C/c2cccnc2)cc1 has a solubility kinetic of 3.3 µg/mL (≈ 10.4 µM). Cc1ccc(CCN2CC(C(=O)NCCC(C)C)CC2=O)cc1 (centres undefined) showed a solubility kinetic of 45.7 µg/mL (≈ 144 µM). O=C(/C=C/c1cccc(Br)c1)NCc1ccncc1 gave a solubility kinetic of 37.2 µg/mL (≈ 117 µM). In the case of Cc1ccc(C2=CSC3=NS(=O)(=O)CCN23)cc1, the solubility kinetic is reported as > 42.1 µg/mL. Oc1ccc(Br)cc1CNc1nccs1 showed a solubility kinetic of 4.4 µg/mL (≈ 15.4 µM). With O=C(O)/C=C/c1cnc2ccccc2n1 the solubility kinetic was > 30 µg/mL. In the case of Cc1ccc(C(=O)OCC(=O)NC(=O)c2cccn2C)cc1[N+](=O)[O-], the solubility kinetic is reported as 1.3 µg/mL (≈ 3.76 µM). In the case of CC(C)c1ccc(C(CC(=O)O)N2Cc3ccccc3C2=O)cc1 (centres undefined), the solubility kinetic is reported as > 48.5 µg/mL. For O=C(COC(=O)COc1ccccc1F)NCc1ccco1, the solubility kinetic was > 46.1 µg/mL. CC(NC(=O)C(Cc1ccccc1)n1cccc1)c1ccccc1 (centres undefined) gave a solubility kinetic of 11.6 µg/mL (≈ 36.4 µM). For O=C(Nc1cccc(NC(=O)c2cccs2)c1)c1cccnc1, the solubility kinetic was > 48.5 µg/mL. For CCCNC(=O)Nc1cccc(C(=O)OC)c1, the solubility kinetic was > 35.4 µg/mL. In the case of CC1(C)NC(=O)N(CCCCOc2ccc(Cl)cc2C=O)C1=O, the solubility kinetic is reported as 47.6 µg/mL (≈ 140 µM). Work on CC(=O)c1ccc(OCCCOc2cccc3cccnc23)cc1 yielded a solubility kinetic of 12.2 µg/mL (≈ 38 µM). In the case of CN1CCN(CC(=O)NC(=O)NC2CCCCC2)CC1, the solubility kinetic is reported as > 42.4 µg/mL. Cc1ccc(C)c(Cn2c(=O)n(C)c(=O)c3sccc32)c1 gave a solubility kinetic of 0.4 µg/mL (≈ 1.33 µM). Molecule CCC(=O)N(Cc1cc(=O)[nH]c2ccccc12)c1ccccc1C has a solubility kinetic of 36.3 µg/mL (≈ 113 µM). In the case of CCOc1ccc(NC(=O)CN(C)C(=O)C2COc3ccccc3O2)cc1OCC (centres undefined), the solubility kinetic is reported as > 62.2 µg/mL. O=C(CNC(=O)c1ccccc1F)c1ccc(Br)cc1 gave a solubility kinetic of 3.8 µg/mL (≈ 11.3 µM). In the case of Cc1ccc(C23CC4CC(CC(C(=O)NC(C)C(=O)O)(C4)C2)C3)cc1 (centres undefined), the solubility kinetic is reported as > 51.2 µg/mL. Cc1ccc(C(=O)CCC(=O)Nc2ccccc2F)cc1 showed a solubility kinetic of 4.8 µg/mL (≈ 16.8 µM). For O=[N+]([O-])/C=C\c1ccc(N2CCOCC2)cc1, the solubility kinetic was 16.5 µg/mL (≈ 70.4 µM). In the case of Cc1ccc(S(=O)(=O)N2CCN(CC(=O)N3CCOCC3)CC2)cc1, the solubility kinetic is reported as 54.7 µg/mL (≈ 149 µM). For COc1ccccc1CCNC(=O)c1c(C)nn(CC(C)C)c1Cl, the solubility kinetic was > 52.5 µg/mL. Work on O=C1NC(=S)N/C1=C/c1ccc2ccccc2c1 yielded a solubility kinetic of 0.6 µg/mL (≈ 2.36 µM). In the case of CC(=O)N1CCN(C(=O)c2cc(=O)c3ccccc3o2)CC1, the solubility kinetic is reported as > 45 µg/mL. Molecule COc1ccc(CNc2ncc(-c3ccccc3)n2C)cc1 has a solubility kinetic of 28.6 µg/mL (≈ 97.5 µM). Work on N#C/C(=C\Nc1ccc(F)c(Cl)c1)C(=O)C1CC1 yielded a solubility kinetic of 1.7 µg/mL (≈ 6.42 µM). Molecule CC(=O)c1ccc(OCc2ncc(C(F)(F)F)cc2Cl)cc1 has a solubility kinetic of 23.6 µg/mL (≈ 71.6 µM). CC(C)CN(Cc1cc(=O)oc2cc3c(cc12)CCCC3)CC(C)C showed a solubility kinetic of 1.1 µg/mL (≈ 3.22 µM). In the case of CCCN1CCC(NC(=O)C2CC=CCC2C(=O)O)CC1 (centres undefined), the solubility kinetic is reported as > 44.2 µg/mL. For Cc1c(Cl)cccc1NC(=O)CC1Oc2ccccc2NC1=O (centres undefined), the solubility kinetic was 5.7 µg/mL (≈ 17.2 µM). CN(Cc1ccc(F)cc1)Cc1nc(CCc2ccccc2)no1 showed a solubility kinetic of 5.7 µg/mL (≈ 17.5 µM). O=C(CCS(=O)(=O)Cc1ccccc1F)NCc1ccccc1Cl showed a solubility kinetic of 4.3 µg/mL (≈ 11.6 µM). CCc1c(C)nc(N2CCN(c3ccc(F)cc3)CC2)[nH]c1=O showed a solubility kinetic of 2.1 µg/mL (≈ 6.64 µM). COC(=O)c1ccc(C(=O)OC)c(NC(=O)C(C)(C)C)c1 gave a solubility kinetic of 3.9 µg/mL (≈ 13.3 µM). With CC(=O)N1CCN(c2ccc(S(=O)(=O)N3CCCCC3)cc2[N+](=O)[O-])CC1 the solubility kinetic was > 59.5 µg/mL. CNc1oc(-c2ccccc2)nc1S(=O)(=O)c1ccc(C)cc1 gave a solubility kinetic of 5.3 µg/mL (≈ 16.1 µM).
